Test results published in the supplement of paper PMC5412046.
Values joined by “and” are separate entries in the source; they are usually repeats but may differ in a detail not shown here. Identical values can stand only once. Counter-ions that a name gives are not always drawn.

Legend:
SB.msgc-1 [1] = assay: area under the dose-response curve of % viability (trapezoidal, 11 doses) (% viability x log10 concentration); higher = less cytotoxic; conditions: SB.msgc-1 (sporadic gastric cancer)
In short: (§1)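 Using a pintool, 23 nL of compound in DMSO was transferred at 11 threefold-diluted concentrations onto patient-derived gastric cancer cells, hereditary or sporadic, plated at 500 cells in 5 μL medium per 1536 well. CellTiter-Glo luminescence was read after 48 h. Each value is viability normalised to DMSO, either at the highest concentration or as trapezoidal area under the curve.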

SB.mhdgc-1 [2] = assay: as above; conditions: SB.mhdgc-1 (hereditary c.1380delA CDH1 gastric cancer)
In short: as §1

SB.msgc-1 [3] = assay: viability at highest tested concentration (MAXR) relative to DMSO; higher = less cytotoxic; conditions: SB.msgc-1 (sporadic gastric cancer)
In short: as §1

SB.mhdgc-1 [4] = assay: as above; conditions: SB.mhdgc-1 (hereditary c.1380delA CDH1 gastric cancer)
In short: as §1

SMILES	area under the dose-response curve (SB.msgc-1 [1])	area under the dose-response curve (SB.mhdgc-1 [2])	viability (SB.msgc-1 [3])	viability (SB.mhdgc-1 [4])
OCCn1cc(-c2cnc3nnn(Cc4ccc5ncccc5c4)c3n2)cn1 (top concentration 46.0829 µM)	515	588	93.7%	55.1%
CNC(=O)c1c(F)cccc1Nc1nc(Nc2cc3c(cc2OC)CCN3C(=O)CN(C)C)nc2[nH]ccc12 (top concentration 46.0829 µM)	460	302	2.95%	1.17%
NC12CC3CC(CC(C3)C1)C2 [Amantadine hydrochloride] (top concentration 46.0829 µM)	497	438	43.7%	55.3%
COC(=O)C\1=C(C)\N\C(=C(/C1C2=CC=CC3=NON=C23)C(=O)OC(C)C)C (stereo unspecified) [Isradipine] (top concentration 46.0829 µM)	292	390	0.326%	2.69%
N#Cc1ccc(COC[C@H]2O[C@@H](n3c(NCc4ccc(Cl)c(Cl)c4)nc4c(N)ncnc43)[C@H](O)[C@@H]2O)cc1 (top concentration 46.0829 µM)	466	520	48%	42.4%
C[N+]1(C)[C@@H]2C[C@@H](OC(=O)[C@H](CO)c3ccccc3)C[C@H]1[C@@H]1O[C@@H]12.[Br-] [Methscopolamine bromide] (top concentration 46.0829 µM)	578	496	133%	98.7%
CCOC(=O)C(C)(C)Oc1ccc(Cl)cc1 [Clofibrate] (top concentration 46.0829 µM)	515	543	94.5%	73.8%
O=C1CSC(=O)N1C(CCc1ccncc1)COc1ccc(-c2cccc([N+](=O)[O-])c2)cc1 (stereo unspecified) (top concentration 46.0829 µM)	454	347	34.1%	16.8%
Nc1ccccc1NC(=O)c1ccc(CNc2nccc(-c3cccnc3)n2)cc1 [Mocetinostat] (top concentration 46.0829 µM)	355	447	16.8%	69%
N=C(NCCCCCCNC(=N)NC(=N)Nc1ccc(Cl)cc1)NC(=N)Nc1ccc(Cl)cc1 [Chlorhexidine] (top concentration 46.0829 µM)	369	386	-0.136%	3.04%
Cc1ccccc1C(C(=O)NC1CCCCC1)N(C(=O)Cn1ccnc1C)c1cccc(F)c1 (stereo unspecified) [AGI-5198] (top concentration 46.0829 µM)	508	597	83.5%	114%
CC(C)OC(=O)C(C(=O)OC(C)C)=C1S\C=C/S1 [Malotilate] (top concentration 46.0829 µM)	553	505	66.7%	74.3%
COc1ccc(CC2NCCc3cc(OC)c(OC)cc32)cc1OC (stereo unspecified) [Tetrahydropapaverine] (top concentration 46.0829 µM)	429	437	56.7%	51.3%
CN1CCC(=C2c3ccccc3CCc3sccc32)CC1 [Pizotifen] (top concentration 46.0829 µM)	560	588	100%	66.1%
CCOC\1=C(/C(=O)NC2=CC=C(OC3=C(Cl)C(=NC=C3)N)C(=C2)F)C(=O)N(\C=C1)C4=CC=C(F)C=C4 (top concentration 46.0829 µM)	512	562	59.8%	68.7%
CCCCCCOC(=O)/N=C(/N)c1ccc(NCc2nc3cc(C(=O)N(CCC(=O)OCC)c4ccccn4)ccc3n2C)cc1 [BIBR 1048] (top concentration 46.0829 µM)	500	459	35.7%	37.6%
Cc1[nH]c2ccccc2c1CCNCc1ccc(/C=C/C(=O)NO)cc1 [Panobinostat] (top concentration 46.0829 µM)	256	339	7.03%	22.6%
CC12CC3CC(C)(C1)CC(N)(C3)C2 [Memantine hydrochloride] (top concentration 46.0829 µM)	472	524	3.88%	3.41%
NCCS(=O)(=O)O [Taurine] (top concentration 46.0829 µM)	578	549	101%	79%
Cc1cnc(Nc2ccc(N3CCN(C)CC3)cc2)nc1Nc1cccc([S+](=O)([O-])NC(C)(C)C)c1 (top concentration 46.0829 µM)	443	504	8.47%	3.82%
O=[N+]([O-])c1ncc[nH]1 [Azomycin] (top concentration 46.0829 µM)	412	235	67.2%	80.9%
C=C1/C(=C/C=C2\CCCC3(C)[C@@H]([C@H](C)/C=C/C=C/C(O)(CC)CC)CC[C@@H]23)C[C@@H](O)C[C@@H]1O (stereo partly specified) [Seocalcitol] (top concentration 46.0829 µM)	429	460	4.45%	31.7%
C[C@]\12CC[C@H](O)CC1=C/CC3C2CC[C@@]\4(C)C3C\C=C4[N]5C=NC6=C5C=CC=C6 (stereo partly specified) [Galeterone] (top concentration 46.0829 µM)	446	471	11.8%	12.2%

SMILES	area under the dose-response curve (SB.msgc-1 [1])	area under the dose-response curve (SB.mhdgc-1 [2])	viability (SB.msgc-1 [3])	viability (SB.mhdgc-1 [4])
CNC(=O)c1cc(COc2nnc(Nc3ccc(Cl)cc3)c3ccoc23)ccn1 [Telatinib] (top concentration 46.0829 µM)	512	564	59.4%	55.6%
CN1CCN(CCOc2cc(OC3CCOCC3)c3c(Nc4c(Cl)ccc5c4OCO5)ncnc3c2)CC1 [Saracatinib] (top concentration 46.0829 µM)	392	435	41.3%	4.27%
O=C(/C=C/c1ccc(CN(CCO)CCc2c[nH]c3ccccc23)cc1)NO [Dacinostat] (top concentration 46.0829 µM)	282	357	7.9%	4.22%
O=C(O)CCNC(=O)c1ccc(/N=N/c2ccc(O)c(C(=O)O)c2)cc1 [Balsalazide disodium] (top concentration 46.0829 µM)	501	487	32.7%	50.6%
CN(C)NC(=O)CCC(=O)O [Daminozide] (top concentration 46.0829 µM)	498	518	88%	100%
Cn1ccc2cc3c(cc21)CCN3C(=O)Nc1cccnc1 (top concentration 46.0829 µM)	527	462	61.5%	59.3%
CCc1ccc(CCOc2ccc(CC3SC(=O)NC3=O)cc2)nc1 (stereo unspecified) [Pioglitazone HCl] (top concentration 46.0829 µM)	506	579	91.4%	112%
CCNC(=O)Nc1ccc(Oc2ncnc(N)c2/C=N/OC)cc1Cl (top concentration 46.0829 µM)	481	534	53.8%	83%
CCN1C[C@H](C)[N]2C(=C(O)C3=C2\C(=N/N(CC4=CC=C(F)C(=C4)Cl)C3=O)C(=O)NC)C1=O [MK-2048] (top concentration 46.0829 µM)	574	538	106%	118%
CCC(C)(C)c1ccc(CC(C)CN2C[C@@H](C)O[C@@H](C)C2)cc1 (stereo partly specified) [Amorolfine hydrochloride] (top concentration 46.0829 µM)	467	378	71.4%	24.3%
CC[P](CC)(CC)=[Au][S][C@@H]1OC(COC(C)=O)[C@@H](OC(C)=O)[C@H](OC(C)=O)C1OC(C)=O (stereo partly specified) [Auranofin] (top concentration 46.0829 µM)	403 and 366	347 and 345	2.96% and -0.439%	5.72% and 1.17%
Cc1cnc(Nc2ccc(F)cc2Cl)nc1-c1c[nH]c(C(=O)N[C@H](CO)c2cccc(Cl)c2)c1 (top concentration 46.0829 µM)	429	351	7.36%	2.17%
O=C(c1ccc(C(=O)N2CCC(N3CCCC3)CC2)c(Nc2ccccc2)c1)N1CCC(N2CCCC2)CC1 [UNC1215] (top concentration 46.0829 µM)	525	589	111%	154%
O=C1c2c(O)cccc2[C@H]([C@@H]2O[C@H](CO)[C@@H](O)[C@H](O)[C@H]2O)c2cc(CO)cc(O)c21 [Aloin] (top concentration 46.0829 µM)	544	457	76.1%	53.8%
CNC1CCC(N(Cc2cccc(-c3ccncc3)c2)C(=O)c2sc3ccccc3c2Cl)CC1 (stereo unspecified) [SAG] (top concentration 46.0829 µM)	482	470	50.9%	2.98%
COc1cccc(OC)c1-c1cc(C(=O)NC2(C(=O)O)C3CC4CC(C3)CC2C4)nn1-c1ccnc2cc(Cl)ccc12 (stereo unspecified) [Meclinertant] (top concentration 46.0829 µM)	580	546	52.9%	89.8%
CCCn1c(=O)c2[nH]c(-c3cnn(Cc4cccc(C(F)(F)F)c4)c3)nc2n(CC)c1=O [CVT-6883] (top concentration 46.0829 µM)	573	535	76.2%	62.9%
CCCCC(C)(C)[C@H](O)/C=C/[C@H]1[C@H](O)CC(=O)[C@@H]1C/C=C\CCCC(=O)O [16,16-dimethyl PGE2] (top concentration 46.0829 µM)	538	522	57.8%	57.3%
C[C@]12CC[C@@H]3c4ccc(O)cc4CC[C@H]3[C@@H]1C[C@@H](O)[C@@H]2O [Estriol] (top concentration 46.0829 µM)	517	513	91%	106%
CCN1\C=C(C(O)=O)/C(=O)C2=C1C(=C(N3CCNC(C)C3)C(=C2)F)F (stereo unspecified) [Lomefloxacin hydrochloride] (top concentration 46.0829 µM)	515	517	101%	124%
CCn1c(-c2nonc2N)nc2cncc(CNC3CCNCC3)c21 (top concentration 46.0829 µM)	534	484	93.4%	65.3%
COc1ccc([C@@H]2CC(=O)c3c(O)cc(O[C@@H]4O[C@H](CO[C@@H]5O[C@@H](C)[C@H](O)[C@@H](O)[C@H]5O)[C@@H](O)[C@H](O)[C@H]4O)cc3O2)cc1O [Aurantiamarin] (top concentration 46.0829 µM)	501 and 495	505 and 579		87.1% and 76.4%
CC(C)(C)COc1ccc(-n2cc(C(=O)O)cn2)cc1C#N [Piraxostat] (top concentration 46.0829 µM)	613	552		
